Results published in patent US20190224214A1, “HUMAN GHRELIN O-ACYLTRANSFERASE INHIBITORS” (SYRACUSE UNIVERSITY, priority 2016, published 2019).
Like-named read-outs stand apart in the source and are kept apart here.

How the values were obtained:
[1] = target: T1, hGOAT (Homo sapiens, UniProt Q96T53); test: fluorescence-based in vitro hGOAT activity assay (ghrelin octanoylation, HPLC readout); type: biochemical
T1 construct: made in house; host or cells: Sf9 insect cells (membrane fraction)
T1 sequence (Q96T53 1-435): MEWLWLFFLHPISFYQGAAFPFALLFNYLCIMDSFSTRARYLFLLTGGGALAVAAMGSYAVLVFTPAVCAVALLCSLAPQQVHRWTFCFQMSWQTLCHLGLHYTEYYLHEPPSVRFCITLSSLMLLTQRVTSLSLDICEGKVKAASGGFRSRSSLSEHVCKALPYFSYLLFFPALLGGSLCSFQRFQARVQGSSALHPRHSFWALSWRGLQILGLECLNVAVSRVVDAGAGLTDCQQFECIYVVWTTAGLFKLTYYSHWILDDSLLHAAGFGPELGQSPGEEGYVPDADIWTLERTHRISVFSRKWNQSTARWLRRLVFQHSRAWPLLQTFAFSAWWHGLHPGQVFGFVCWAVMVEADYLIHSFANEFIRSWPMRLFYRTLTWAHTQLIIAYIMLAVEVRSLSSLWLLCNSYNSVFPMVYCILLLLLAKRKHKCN
Description: hGOAT was expressed and enriched in insect (Sf9) cell membrane fractions using a previously published procedure.
Peptide substrates were labeled with acrylodan on a cysteine thiol and HPLC purified as previously reported.
hGOAT activity assays were performed using a modification of previously reported protocols. For each assay, membrane fraction from Sf9 cells expressing hGOAT was thawed on ice and passed through an 18-gauge needle 10 times to homogenize. Assays were performed with ˜100 μg of membrane protein, as determined by Bradford assay. Membrane fraction was preincubated with 1 μM methoxy arachadonyl fluorophosphonate (MAFP) and inhibitor or vehicle as indicated in 50 mM HEPES pH 7.0 for 30 minutes at room temperature. Reactions were initiated with the addition of 500 µM octanoyl CoA and 1.5 μM fluorescently-labeled ghrelin mimetic, GSSFLCAcrylodan, for a total volume of 50 μL, and were incubated for 3 hours at room temperature in the dark. Reactions were stopped with the addition of 50 μL of 20% acetic acid in isopropanol, and solutions were clarified by protein precipitation with 16.7 μL of 20% trichloroacetic acid, followed by centrifugation (1,000×g, 1 minute). The supernatant was then analyzed by reverse phase HPLC, as previously described. Data reported are the average of three independent determinations, with error bars representing one standard deviation.
For inhibition experiments, reactions were performed and analyzed as described in the presence of either inhibitor or vehicle (DMSO or ethanol) as appropriate. The percent activity at each inhibitor concentration calculated from HPLC data using equations 1 and 2: […]
To determine the IC50 value, the plot of % activity versus [inhibitor] was fit to equation 3, with % activity0 denoting hGOAT activity in the presence of the vehicle alone: […]

[2] = target: T1, hGOAT; test: Inhibitor reversibility assay (10-fold dilution after pretreatment at 3x IC50); type: biochemical; details: pretreatment at 3x IC50, then 10-fold dilution
Description: The reversibility of hGOAT inhibition by the α-cyanoenone compounds 3 and 9 was determined by enzyme pretreatment with each inhibitor at three times the measured IC50 concentration, followed by a 10-fold dilution into either reaction buffer or buffer containing the same inhibitor concentration as the pretreatment.
Undiluted homogenized membrane protein fraction containing hGOAT (protein concentration ˜7 μg/μL) was incubated with 10 μM MAFP and 3×IC50 of inhibitor or equal volume vehicle (DMSO or ethanol) for 30 minutes at room temperature. […] Reactions were incubated for 3 hours at room temperature in the dark and then analyzed as described above.

[3] = read-out: IC50, inhibition of hGOAT activity
[4] = hGOAT activity, individual trials, read-out: IC50 (individual trials)
[5] = hGOAT activity, averaged, read-out: IC50 (averaged)
[6] = unit inferred, read-out: IC50, inhibition of hGOAT

CCNC(=O)[C@]12CCC(C)(C)C[C@H]1[C@H]1C(=O)C=C3[C@@]4(C)C=C(C#N)C(=O)C(C)(C)[C@@H]4CC[C@@]3(C)[C@]1(C)CC2 [CDDO-EA]
IC50 [1, 3]: 8 ± 4 µM
reversibility of hGOAT inhibition [2]: reversible hGOAT inhibition

CC1(C)CC[C@]2(C(=O)n3ccnc3)CC[C@]3(C)[C@H](C(=O)C=C4[C@@]5(C)C=C(C#N)C(=O)C(C)(C)[C@@H]5CC[C@]43C)[C@@H]2C1 [CDDO-Im, 1[2-cyano-3,12-dioxooleana-1,9-dien-28-oyl]imidazole, reference compound]
IC50 [1, 3]: 38 ± 6 µM

COC(=O)[C@]12CCC(C)(C)C[C@H]1[C@H]1C(=O)C=C3[C@@]4(C)C=C(C#N)C(=O)C(C)(C)[C@@H]4CC[C@@]3(C)[C@]1(C)CC2 [CDDO-Me, methyl 2-cyano-3,12-dioxooleana-1,9(11)dien-28-oate, reference compound]
inhibition of hGOAT octanoylation activity (in words) [1]: exhibits inhibitory activity against hGOAT

CC1(C)CC[C@]2(C(=O)O)CC[C@]3(C)[C@H](C(=O)C=C4[C@@]5(C)C=C(C#N)C(=O)C(C)(C)[C@@H]5CC[C@]43C)[C@@H]2C1 [Compound 5, reference compound]
inhibition of hGOAT octanoylation activity (in words) [1]: lack of inhibition activity

C[C@@]12CCC[C@H]1[C@@H]1CC[C@H]3CC(=O)C(C#N)=C[C@]3(C)[C@H]1CC2 [Compound 9, (5S,8S,9S,10S,13S,14S)-10,13-dimethyl-3-oxo-4,5,6,7,8,9,10,11,12,13,14,15,16,17-tetradecahydro-3H-cyclopenta[a]phenanthrene-2-carbonitrile]
IC50 [1, 4]: 7 ± 3 µM
IC50 [1, 3]: 8 ± 2 µM
enhancement of inhibitor potency against hGOAT by the steroid scaffold ([1]; α-cyanoenone 9 versus 16): ~150 fold
reversibility of hGOAT inhibition [2]: reversible hGOAT inhibition

C[C@@]12CCC[C@H]1[C@@H]1CC[C@H]3CC(=O)C(Br)=C[C@]3(C)[C@H]1CC2 [Compound 10, (5 S,8S,9S,10S,13S,14S)-10,13-dimethyl-3-oxo-4,5,6,7,8,9,10,11,12,13,14,15,16,17-tetradecahydro-3H-cyclopenta[a]phenanthrene-2-bromide]
IC50 [1, 5]: 83 ± 29 µM
IC50 [1, 4]: 84 ± 35 µM
melting point: 111 to 116 °C

C[C@@]12CCC[C@H]1[C@@H]1CC[C@H]3CC(=O)C=C[C@]3(C)[C@H]1CC2 [Compound 11, (2R,5S,8S,9S,10S,13S,14S)-10,13-dimethyl-4,5,6,7,8,9,10,11,12,13,14,15,16,17-tetradecahydro-3H-cyclopenta[a]phenanthren-3-one]
IC50 [1, 5]: 166 ± 58 µM
IC50 [1, 4]: 201 ± 107 µM
IC50 [1, 6]: 170 ± 60 µM

C[C@@]12CCC[C@H]1[C@@H]1CC[C@H]3CC(=O)CC[C@]3(C)[C@H]1CC2 [Compound 12, (5S,8S,9S,10S,13S,14S)-10,13-dimethyltetradecahydro-1H-cyclopenta[a]phenanthren-3(2H)-one]
inhibition of hGOAT octanoylation activity (in words) [1]: loss of inhibition

C[C@@]12CCC[C@H]1[C@@H]1CC[C@H]3CC(=O)[C@H](Br)C[C@]3(C)[C@H]1CC2 [Compound 13, (2R,5S,8S,9S,10S,13S,14S)-2-bromo-10,13-dimethyltetradecahydro-1H-cyclopenta[a]phenanthren-3(2H)-one]
inhibition of hGOAT octanoylation activity (in words) [1]: unable to support inhibition

CC(C)CCC[C@@H](C)[C@H]1CC[C@H]2[C@@H]3CCC4=CC(=O)CC[C@]4(C)[C@H]3CC[C@]12C [Compound 14, (8S,9S,10R,13R,14S,17R)-10,13-dimethyl-17-((R)-6-methylheptan-2-yl)-6,7,8,9,10,11,12,13,14,15,16,17-dodecahydro-1H-cyclopenta[a]phenanthren-3(2H)-one]
inhibition of hGOAT octanoylation activity (in words) [1]: abrogates inhibition of hGOAT

N#CC1=CCCCC1=O [Compound 16, 6-oxocyclohex-1-enecarbonitrile]
IC50 ([1]; read-out: IC50, inhibition of hGOAT): 1200 ± 200 µM

O=C1CCCC=C1Br [Compound 17, 2-bromocyclohex-2-enone]
IC50 [1, 6]: 500 ± 100 µM

O=C1C=CCCC1 [Compound 18, cyclohexenone, reference compound]
inhibition of hGOAT activity (in words) ([1]; at concentrations up to 1 mM): does not inhibit hGOAT activity

CCN1C(=O)C=CC1=O [NEM, N-ethylmaleimide]
inhibition of hGOAT octanoylation activity (in words) [1]: efficiently inhibits hGOAT
reversibility of hGOAT inhibition [2]: classical irreversible hGOAT inhibition

CC1(C)CC[C@]2(C)CC=C3[C@]4(C)CC[C@H]5C(C)(C)[C@@H](O)CC[C@]5(C)[C@H]4CC[C@@]3(C)[C@@H]2C1 [Taraxerol, taraxerol, reference compound]
inhibition of hGOAT acylation activity (in words) ([1]; at concentrations up to 100 (unit not given)): fails to inhibit

CC1(C)CC[C@]2(C(=O)O)CC[C@]3(C)C(=CC[C@@H]4[C@@]5(C)CC[C@H](O)C(C)(C)[C@@H]5CC[C@]43C)[C@@H]2C1 [oleanic acid, reference compound]
inhibition of hGOAT activity (in words) ([1]; at concentrations up to 100 μM): negligible inhibition

C[C@H]1[C@H](C)CC[C@]2(C(=O)O)CC[C@]3(C)C(=CC[C@@H]4[C@@]5(C)CC[C@H](O)C(C)(C)[C@@H]5CC[C@]43C)[C@H]12 [ursolic acid, reference compound]
inhibition of hGOAT activity (in words) ([1]; at concentrations up to 100 μM): negligible inhibition
